Assay results published in patent US5409946A, “Isoxazole, isothiazole and pyrazole compounds that enhance cognitive function” (Abbott Laboratories, priority 1993, dated 1995).
“And” between values parts separate entries of the source, which are not always exact repeats. Equal values may be shown once. “Also recorded” adds a separate entry of the source. Read-outs that look alike come from different tables or passages of the source.

Key:
[1] = tested on: retention of the avoidance response; experiment: Inhibitory avoidance test; format: in vivo; conditions: i.p. 15 min before training, retention at 24 h, p<0.05
Excerpt: The inhibitory (or sometimes called passive) avoidance (IA) test is a well-accepted animal model for learning/memory and is widely used to assess the activity of novel cognition enhancers in enhancing cognitive function (Wanibuchi et al., Eur. J. Pharmacol., 1990, 187:479). According to this test, animals are placed in the illuminated (12×14×11 cm) portion of a two-chambered box, from which they enter through a guillotine door to the larger (24×13.5×12 cm) dark compartment of the box. Entry to the dark compartment is accompanied by a mild (0.35 mA), brief (2 seconds) footshock. Initial latencies to cross are recorded, with an imposed 60 second ceiling. Following a 24 hour retention interval, animals are returned to the illuminated chamber, and latency to return to the dark compartment is again recorded, with a ceiling of 180 seconds. No footshock is administered on the test day.
Twelve animals were used in each group.

[2] = tested on: anxiety induced by (-)-nicotine withdrawal; experiment: Elevated plus-maze 48 hours after withdrawal of 14-day chronic (-)-nicotine; format: in vivo, rats
Excerpt: The mouse elevated plus-maze is a conflict test that probes anxiolytic activity of test compounds (Lister, Psychopharmacology, 1987, 92:180). It is based on the fact that exposure of mice to an elevated open arm leads to an avoidance response considerably stronger than that evoked by exposure to an enclosed arm. Compounds may be tested for their ability to modify the avoidance response of the animal to the open arm maze. […] The effect of such potential anti-anxiety drugs may be tested further in a withdrawal challenge test.
Elevated Plus-Maze: The procedure originally described by Pellow et al., for rats was used, with minor modifications (Pellow et al., J. Neurosci. Meth., 14: 149, 1985). The apparatus consisted of two open arms (50×10 cm) and two enclosed arms (50×10×40 cm) extending from a central platform (10×10 cm). It was mounted on a base raising 50 cm above the floor. Light levels on the open and enclosed arms were similar. The animals were placed in the center of the maze and the time spent in the open arms and the total distance traveled by the rat were recorded automatically by a camera mounted above the apparatus, then analyzed by computer (Videomex™ software, Columbus Instruments, Columbus, Ohio). All animals used were naive to the apparatus. Animals were injected i.p. with saline or the different drug doses, and submitted to the test 30 minutes later. The test lasted 5 minutes, and the apparatus was thoroughly cleaned after removal of the animal.
The pumps were removed on day 14 and the animals were tested in the plus-maze 48 hours later, at the time when a state of withdrawal-induced anxiety was present in the rats. On the test day i.p. doses of either saline or the compound of Example 2 were administered to the animals 30 minutes before the test. Data (Table 13) represent the mean ±SEM time spent in the open arms of the plus-maze of 8-16 rats.

[3] = tested on: neuronal nicotinic cholinergic channels in PC12 cells; experiment: Cholinergic channel activator action in PC12 cells, whole-cell patch-clamp; format: cell-based, rat
Method: Electrophysiologic recordings were obtained from differentiated (neurite-bearing) cells after 4-7 days exposure to NGF. […] After 20 minutes, differentiating medium was added (DMEM containing 100 ng/ml nerve growth factor, 5% heat-inactivated fetal calf serum and 2.5% heat-inactivated horse serum) and the cells were refed with this medium every 3 days.
The intracellular (recording pipette) solution consisted of 140 mM KCl, 1.0 mM CaCl2, 2.0 mM MgCl2, 11 mM K-EGTA, and 10 mM K-HEPES buffer (7.3 pH, 315 mOsm). Osmolarities were adjusted using dextrose such that the extracellular solution was 10 mOsm hypertonic compared to the intracellular solution. Voltage-gated inward (sodium) and outward (potassium) currents were monitored throughout the experiment to determine establishment and maintenance of the whole-cell recording configuration.

effects of ethanol = conditions: administered directly into the brain; ethanol i.p.; cited from earlier work
spike wave discharges = experiment: Attenuation of petit mal absence-like spike wave discharges (EEG); format: in vivo, male Wistar rats; conditions: for effect on incidence of spike wave discharges: i.p., 20 min waking immobility, p<0.05 where significant; for Total spike wave duration: 5.0 μmol/kg i.p.
Method: Animals: Male albino rats of the Wistar strain (CAMM Research) were maintained on a 12:12 hour light-dark cycle and individually housed throughout these experiments. They were fed standard rodent diet with food and water provided ad libitum.
EEG Recordings: To record spike wave discharges, rats were surgically implanted with permanently affixed EEG electrodes over the frontal codex using previously described techniques (Radek, Brain Res., 1993, in press). After at least a ten day recovery from this surgery, EEG recordings were made inside darkened sound attenuating chambers. Rats were allowed to move freely within the chambers and computerized activity monitors recorded animal motion during these studies. Only those rats that express spike wave discharges, as identified from preliminary recordings, were used to test the effects of nicotinic agents.
Drug studies: EEG recordings were obtained from each rat for a period of 20 minutes of total waking immobility immediately after administration of drug, or a drug-free control solution. Immobility was characterized as the absence of infrared beam interruptions from the activity monitor system. Spike wave activity was identified as regular 6-10 Hz complexes with amplitudes of 0.4 to 1.0 mV. The total spindling duration for 20 minutes of waking immobility was calculated by determining the length (in seconds) of each spike wave burst, and adding each of these times together to obtain a total spindle time for the recording session. Each rat was administered the control solution and one or two doses of the test compounds and each dosing was given at least 48 hours after the previous treatment.
The compound of Example 2 was dissolved in saline to the desired concentration.

[4] = tested on: time spent in the open arms (anxiolytic activity); experiment: Mouse elevated plus-maze; format: in vivo, CD1 mice; conditions: i.p., p<0.05; for Elevated Plus-Maze (EPM) result: time in open arms
Excerpt: The mouse elevated plus-maze is a commonly-used conflict test that probes anxiolytic activity of test compounds (Lister, Psychopharmacology, 1987, 92 180). It is based on the fact that exposure of mice to an elevated open arm leads to an avoidance response considerably stronger than that evoked by exposure to an enclosed arm.
The apparatus required to perform this test is made of plywood and consists of two open arms (17×8 cm) and two enclosed arms (17×8×15 cm) extending from a central platform (8×8 cm). It is mounted on a plywood base rising 39 cm above the floor. Mice are released on the central platform and the time spent in the open and enclosed arms is recorded during a 5 minute test period.
The compound of Example 2 (0.0108-1.08 μmol/kg, i.p.) was administered to CD1 mice (n=12 per group) 15 minutes before the test.

ethanol-induced narcosis [5] = format: in vivo, male CD1 mice; conditions: mouse, in vivo
Excerpt: It is known that administration of ethanol to mice induces a state of narcosis in the animals. […] It is also known that certain compounds can modify the narcotic effect of ethanol in this model.
Animals: Male CD1 mice (Charles-River Co., Portage, Mich.) weighing 25-30 g were used in the experiments. Upon arrival they were caged in groups of 14 and allowed to acclimatize to laboratory conditions for one week before the beginning of the studies. They were fed standard rodent diet with food and water ad libitum.
Duration of sleep time: Mice received intraperitoneal (i.p.) injections of ethanol and either saline or one of the drug treatments. Upon loss of the righting reflex, a timer was started to record the duration of the sleep time until the reflex was recovered. Two types of experiments were conducted to study the effect of drugs before (pre-treatment) or after (post-treatment) the injection of the narcotic dose of ethanol. In the pre-treatment experiments the drugs were injected i.p., 15 minutes before ethanol. In the post-treatment experiments the drugs were administered i.p., 1 minute after the animals lost the righting reflex, which was approximately 5 minutes after administration of ethanol.
Drugs: Ethanol was prepared as a 20% v/v (16% w/v) solution in saline. Based on previous studies, a dose of 87 mmol/kg (4 g/kg) was selected as the narcotic dose. RO 15-4513, the benzodiazepine receptor inverse agonist discussed in the Background section, was purchased from RBI (Natick, Mass.). It was dissolved in saline solution with Tween-80 and ultrasonically homogenized for 3 minutes. […] The compounds of Examples 2 and 4, both novel neuronal nicotinic receptor ligands according to the present invention, were also dissolved in saline to the desired concentrations.

1-4 Hz slow wave EEG = 1-4 Hz slow wave EEG amplitude; format: in vivo, male Wistar rats
[6] = molecular target: neuronal nicotinic receptors; experiment: Displacement of [3H]-MCC or [3H]-cytisine from neuronal nicotinic receptors, whole rat brain membranes; format: binding
Method: Binding of [^3 H]-methylcarbamylcholine ([^3 H]-MCC) or [^3 H]-cytisine ([^3 H]-CYT) to nicotinic receptors was accomplished using crude synaptic membrane preparations from whole rat brain (Snyder and Enna, Brain Research, 1975, 100:81). Washed membranes were stored at -80° C. prior to use. Frozen aliquots were slowly thawed and resuspended in 20 volumes of buffer (containing: 120 mM NaCl, 5 mM KCl, 2 mM MgCl2, 2 mM CaCl2 and 50 mM Tris-Cl, pH 7.4 @4° C). After centrifuging at 20,000 X g for 15 minutes, the pellets were resuspended in 30 volumes of buffer. Homogenate (containing 125-150 μg protein) was added to triplicate tubes containing concentrations of test compound and [^3 H]-MCC (3 nM) in a final volume of 500 μL. Samples were incubated for 60 minutes at 4° C., then rapidly filtered through Whatman GF/B filters presoaked in 0.5% polyethylimine using 3×4 mL of ice-cold buffer. Alternately, homogenate and test compound were incubated for 75 min with [^3 H]-CYT (1.3 nM), then rapidly filtered, as described above. The filters are counted in 4 mL of Ecolume® (ICN). […] IC50 values were determined with the ALLFIT nonlinear least squares curve-fitting program and IC50 values were converted to Ki values using the Cheng and Prusoff correction (Ki =IC50 /(1+[ligand]/Kd of ligand)). Alternately, data were expressed as a percentage of the total specific binding.

muscarinic receptors = format: binding, rat; conditions: Table 2
Method: The potencies of ligand binding at central muscarinic binding sites were determined by analysis of competition with the specific muscarinic receptor radioligand [^3 H]-quinuclidinyl benzilate ([^3 H]-QNB). […] Competition between various concentrations of putative nicotinic ligand compounds and 0.2 nM [^3 H]-QNB was performed at 25° C. in an assay volume of 1 mL. After 75 minutes, the bound radioligand was separated by vacuum filtration on Whatman GF/B glass fiber filters. Non-specific binding was defined as radioactivity remaining in the presence of 10 μM atropine. Competition curves were analyzed for Ki values as described above for binding to the nicotinic receptor.

[7] = in vivo; cited from earlier work
ethanol-induced narcosis [8] = conditions: literature knowledge; cited from earlier work
[9] = tested on: resting cortical perfusion in the parietotemporal cortex; conditions: humans; cited from earlier work

CN1CCCC1c1cccnc1 (single isomer, unassigned; (-)) [(-)-Nicotine]
Inhibitory Avoidance (IA) result [1]: dose-dependent facilitation of retention of the avoidance response | Inhibitory Avoidance (IA) result ([1]; listed as (-)-nicotine): significant | effect on time spent in the open arms ([2]; 48 h after withdrawal of chronic (-)-nicotine): significant reduction in the time spent in the open arms | TIME OPEN ARMS ([2]; 14 days chronic 10 mg/kg/day then withdrawal, saline challenge, *p < 0.05 against chronic saline, mean ± SEM): 35.1 ± 6.0 s | EC50 ([3]; PC12 cells, mean ± S.E.M.): 52000 ± 4000 nM | effect on motor incoordination due to ethanol (effects of ethanol): significantly attenuate the motor incoordination due to the effects of ethanol | effect on incidence of spike wave discharges (spike wave discharges): significantly lowered the incidence of spike wave discharges | Elevated Plus-Maze (EPM) doses with significant effect [4]: 0.62 to 1.9 µmol/kg | Elevated Plus-Maze (EPM) result [4]: significant increase in the time spent by the mice in the open arms | Elevated Plus-Maze (EPM) result ([4]; listed as (-)-nicotine): significant | effect of pre-treatment on ethanol sleeping time (ethanol-induced narcosis [5]): significantly reduced the sleeping time of ethanol in mice | Sleeping time (ethanol-induced narcosis [5]; ip): 121 ± 18 % of controls and 149 ± 28 % of controls and 164 ± 32 % of controls and 232 ± 29 % of controls | effect of post-treatment on ethanol-induced narcosis (ethanol-induced narcosis [5]; ip): significantly prolonged the narcotic effect of ethanol; also recorded: adversely potentiated the narcotic effect | 1-4 Hz amplitude (1-4 Hz slow wave EEG; 1.9 μmol/kg i.p.): 13.2 ± 2.0 μVolts | effect on low frequency (1-4 Hz) EEG slow-wave patterns (1-4 Hz slow wave EEG; i.p.): significant (p<0.05, 2-way ANOVA, Fisher post hoc analysis) attenuation

COC(=O)C1=CCCN(C)C1 [Arecoline, reference compound]
Ki ([6]; Table 1, read-out: Nicotinic Receptor Ki): 59 nM | Ki ([6]; Table 2, read-out: Nicotinic Ki): 59 nM | Ki (muscarinic receptors): 5000 nM | pharmacokinetics [7]: unfavorable pharmacokinetics

CN1C(=O)CN=C(c2ccccc2)c2cc(Cl)ccc21 [Diazepam, diazepam]
effect on ethanol sleep time (known) (ethanol-induced narcosis [8]): potentiate the effect of ethanol by increasing the sleep time | effect on incidence of spike wave discharges (spike wave discharges): significantly lowered these discharges

CNC1(C)C2CCC(C2)C1(C)C (stereo not shown) [Mecamylamine, mecamylamine]
effect on resting cortical perfusion [9]: reduces resting cortical perfusion in the parietotemporal cortex of humans | inhibition of the response to Example 2 ([3]; 10 μM antagonist, Example 2 300 μM, N=3): 81±3% | Total spike wave duration (spike wave discharges; Table 10): 45.7 ± 15.0 s | Total spike wave duration (spike wave discharges; Table 11): 46.8 ± 6.4 s | effect on incidence of spike wave discharges (spike wave discharges): did not affect the incidence of spike/wave discharges | blockade of agonist-induced lowering of spike wave discharges (spike wave discharges; mecamylamine with (-)-nicotine or Example 2): blocked the effects of both (-)-nicotine and the compound of Example 2

CCCC(C)C1(CC)C(=O)NC(=O)NC1=O (stereo not shown) [pentobarbital]
effect on ethanol sleep time (known) (ethanol-induced narcosis [8]): potentiate the effect of ethanol by increasing the sleep time
